Assay results taken from the RepoRT retention time repository (doi:10.1007/s11306-011-0298-z).

Assay: RP, Waters ACQUITY UPLC HSS T3, 100 × 2.1 mm, 1.8 µm, 30 °C, 0.3 mL/min, estimated dead time 0.73 min; A: water + 0.1% formic acid, pH 3; B: methanol + 0.1% formic acid, pH 3; gradient (min/%B) 0/0 6/0 56/100 60/100
Details: stereoisomer not certain

Row | SMILES | LC retention time [min]
1 | Cc1c(C)c2c(c(C)c1O)CCC(C)(CCCC(C)CCCC(C)CCCC(C)C)O2 (stereo not drawn) [alpha-tocopherol] | 59.2
2 | O=C(O)C(=O)C(O)C(O)C(O)CO [2-keto-D-gluconic acid] | 1.4
3 | O=C1CCC(=O)N1O [N-hydroxysuccinimide] | 2
4 | Oc1ccc(/C=C\c2cc(O)cc(O)c2)cc1 [cis-resveratrol] | 30.4
5 | Oc1ccc(C2Oc3cc(O)cc4c3C2c2cc(O)cc(O)c2C(c2ccc(O)cc2)C4C2c3cc(O)cc4c3C(c3cc(O)cc(O)c3C2c2ccc(O)cc2)C(c2ccc(O)cc2)O4)cc1 (stereo not given) [isohopeaphenol] | 25.9
6 | N[C@@H](CO)C(=O)O [L-serine] | 1.22
7 | O=C(O)c1cc2ccccc2[nH]1 [indole-2-carboxylic acid] | 38.5
8 | OCC1OC(Oc2cc3c(O)cc(O)cc3[o+]c2-c2cc(O)c(O)c(O)c2)C(O)C(O)C1O (stereo not given) [delphinidin-3-glucoside] | 20.9
9 | OCCc1ccc(O)cc1 [tyrosol] | 17.5
10 | Nc1ncnc2nc[nH]c12 [adenine*] | 2.33
11 | O=Cc1c[nH]c2ccccc12 [Indole-3-aldehyde] | 25.1
12 | COc1cc(-c2oc3cc(=O)cc4oc(O)cc(c2OC2OC(CO)C(O)C(O)C2O)c43)cc(OC)c1O (stereo not given) [oxovitisin A] | 33.2
13 | OCC1OC(Oc2cc(O)cc(C=Cc3ccc(O)c(O)c3)c2)C(O)C(O)C1O (stereo not given) [astringin] | 22.7
14 | CCC=CCC1C(=O)CCC1CC(=O)O (stereo not given) [jasmonic acid] | 33.7
15 | COc1cc(-c2oc3cc(O)cc(O)c3c(=O)c2O)cc(OC)c1O [syringetin] | 37.4
16 | CCC=CCC1C(=O)CCC1CC(=O)OC (stereo not given) [methyl jasmonate] | 38.4
17 | O=C(O)c1ccc(O)c(O)c1 [protocatechuic acid] | 13.9
18 | CCCCCC(O)C=CC=CCC=CCC=CCCCC(=O)O [15(S)hydroxy-(5Z,8Z,11Z,13E)-eicosatetraenoic acid] | 50.4
19 | NCCCNCCCCNCCCN [spermine] | 0.98
20 | COc1cc(-c2oc3cc(O)cc(O)c3c(=O)c2OC2OC(CO)C(O)C(O)C2O)cc(OC)c1O (stereo not given) [syringetin-3-galactoside] | 31.6
21 | Cc1ncc(CO)c(CN)c1O [pyridoxamine] | 1.42
22 | CC1OC(Oc2c(-c3cc(O)c(O)c(O)c3)oc3cc(O)cc(O)c3c2=O)C(O)C(O)C1O (stereo not given) [Myricitrin (myricetin 3-O-rhamnoside)] | 28.3
23 | N[C@@H](Cc1ccc(O)cc1)C(=O)O [L-tyrosine] | 6.08

Row | SMILES | LC retention time [min]
24 | CC(=O)NC(Cc1ccc(O)cc1)C(=O)O (stereo not given) [N-acetyl tyrosine] | 17.4
25 | Cn1c(=O)c2c(ncn2C)n(C)c1=O [caffeine] | 20.4
26 | Cc1cc2nc3c(=O)[nH]c(=O)nc-3n(CC(O)C(O)C(O)COP(=O)(O)O)c2cc1C (stereo not given) [FMN] | 21.9
27 | O=C(O)CCC(=O)O [succinic acid] | 4.97
28 | O=C(O)c1ccccc1 [benzoic acid] | 26.2
29 | CCCCCCCCCCCCCCCCCCCC(=O)OC [methyl arachidate] | 59.2
30 | COc1ccc(-c2cc(=O)c3c(OC)c(OC)c(OC)cc3o2)cc1O [eupatorin-5-methylether] | 37.4
31 | CCOc1cc(C=O)ccc1O [3-ethoxy-4-hydroxybenzaldehyde] | 27.2
32 | C=CC1CN2CCC1CC2C(O)c1ccnc2ccccc12 (stereo not given) [chinchonidine sulphate] | 19.1
33 | O=C(O)c1ccc(O)cc1O [beta-resorcylic acid] | 19.6
34 | CC(CCC(=O)O)C1CCC2C3CC(O)C4CC(O)CCC4(C)C3CCC12C (stereo not given) [hyodeoxycholic acid] | 46.4
35 | O=C(O)C=Cc1ccccc1 [cinnamic acid] | 31.8
36 | O=C(O)C(O)CO (stereo not given) [glyceric acid] | 1.45
37 | O=C(O)c1ccc(O)cc1 [4-hydroxybenzoic acid] | 17.5
38 | CCCCCCCCCCCC=CC=CC=CC=CC=CC(=O)O [Docosapentaenoic acid] | 54
39 | NCCCCNCCCN [spermidine] | 1.04
40 | O=C(O)c1c[nH]c2ccccc12 [indole-3-carboxylic acid] | 25.6
41 | COc1ccc(C2CC(=O)c3c(O)cc(O)cc3O2)cc1O (stereo not given) [hesperetin] | 34.8
42 | Oc1cc(O)c2cc(O)c(-c3ccc(O)c(O)c3)[o+]c2c1 [cyanidin] | 28.9
43 | CC(C)CCCC(C)C1CCC2C3CC=C4CC(O)CCC4(C)C3CCC12C (stereo not given) [cholesterol] | 60.2
44 | Cn1c(=O)c2[nH]cnc2n(C)c1=O [theophylline] | 17.8
45 | NC(=O)c1cccnc1 [nicotinamide] | 3.79
46 | CC1OC(O)C(O)C(O)C1O (stereo not given) [rhamnose] | 1.57

Row | SMILES | LC retention time [min]
47 | Nc1nc2c(ncn2C2CC(O)C(COP(=O)(O)O)O2)c(=O)[nH]1 (stereo not given) [2'-deoxyguanosine-5'-phosphate] | 7.99
48 | COc1cc(C=NN=Cc2cc(OC)c(O)c(OC)c2)cc(OC)c1O [syringaldazine] | 35.5
49 | CC(C)=CCCC(C)=CCOC(=O)Cc1ccccc1 [geranyl phenylacetate] | 54.6
50 | O=c1cc[nH]c(=O)[nH]1 [uracil] | 2.98
51 | Cc1cc2nc3c(=O)[nH]c(=O)nc-3n(CC(O)C(O)C(O)COP(=O)(O)OP(=O)(O)OCC3OC(n4cnc5c(N)ncnc54)C(O)C3O)c2cc1C (stereo not given) [FAD] | 20.7
52 | CCCCCCN [hexylamine] | 15.1
53 | O=c1c(O)c(-c2ccc(O)c(O)c2)oc2cc(O)cc(O)c12 [quercetin] | 34
54 | C[C@@H](O)[C@H](N)C(=O)O [L-threonine] | 1.3
55 | N[C@@H](CCSC[C@H](N)C(=O)O)C(=O)O [L-cystathionine] | 1.21
56 | COc1ccc(-c2cc(=O)c3c(OC)c(OC)c(OC)cc3o2)cc1OC [sinensetin] | 39.3
57 | CC1CCC2(C(=O)O)CCC3(C)C(=CCC4C5(C)CCC(O)C(C)(C)C5CCC43C)C2C1C (stereo not given) [ursolic acid] | 53.6
58 | CC(=O)CCc1ccc(O)cc1 [4-(4-hydroxyphenyl)butan-2-one] | 24.6
59 | Oc1ccc(C2c3c(O)cc(O)cc3C3C(c4ccc(O)cc4)c4c(O)cc(O)cc4C23)cc1 (stereo not given) [pallidol] | 25.9
60 | Nc1nc2ncc(CNc3ccc(C(=O)NC(CCC(=O)O)C(=O)O)cc3)nc2c(=O)[nH]1 (stereo not given) [folic acid] | 21.3
61 | O=c1c(O)c(-c2ccccc2)oc2cc(O)cc(O)c12 [galangin] | 41.4
62 | CCCCCCCCC=CCCCCCCCC(=O)OC [methyl oleate] | 56.5
63 | COc1cc(-c2[o+]c3cc(O)cc(O)c3cc2OC2OC(CO)C(O)C(O)C2O)cc(O)c1O (stereo not given) [petunidin-3-glucoside] | 22.9
64 | NC(CCC(=O)NC(CS)C(=O)NCC(=O)O)C(=O)O [L-glutathione] | 3.4
65 | N[C@@H](COP(=O)(O)O)C(=O)O [O-phospho-L-serine] | 1.21
66 | NCCc1ccccc1 [phenethylamine] | 12.1
67 | CC(CCC(=O)O)C1CCC2C3C(O)C(O)C4CC(O)CCC4(C)C3CCC12C (stereo not given) [Hyocholic acid] | 45.6
68 | OCC1OC(Oc2ccc(O)cc2)C(O)C(O)C1O (stereo not given) [arbutin] | 7.61
69 | O=c1cc2oc(-c3cc(O)c(O)c(O)c3)c(O)cc-2c(O)c1 [delphinidin] | 27.1

Row | SMILES | LC retention time [min]
70 | Oc1cc(O)c2cc(OC3OCC(O)C(O)C3O)c(-c3ccc(O)c(O)c3)[o+]c2c1 (stereo not given) [cyanidin-3-arabinoside] | 23.1
71 | Oc1ccc(C=Cc2cc(O)cc3c2C(c2cc(O)cc(O)c2)C(c2ccc(O)cc2)O3)cc1 (stereo not given) | 33.5
72 | CCCCCCCCC=CCCCCCCCC(=O)O [oleic acid] | 54.9
73 | O=C(O)C(=O)Cc1c[nH]c2ccccc12 [indole-3-pyruvic acid] | 30.3
74 | O=c1[nH]c(=O)c2[nH]c(=O)[nH]c2[nH]1 [uric acid] | 1.62
75 | CCCCCCCCCCCCCCCC(=O)OC [methyl palmitate] | 56.4
76 | CCCCCCCCCCCCCCCCC(=O)OC [methyl heptadecanoate] | 57.1
77 | C[N+](C)(C)CCO [choline] | 1.4
78 | Cc1cc2nc3c(=O)[nH]c(=O)nc-3n(CC(O)C(O)C(O)CO)c2cc1C (stereo not given) [riboflavin] | 23.9
79 | CCCCCCCCCCCCCC(=O)OCC [ethyl tetradecanoate] | 55.1
80 | CC(C)[C@H](N)C(=O)O [L-valine] | 2.19
81 | NCCc1c[nH]c2ccc(O)cc12 [serotonin] | 11.1
82 | O=Cc1ccc(CO)o1 [5-hydroxymethyl-2-furaldehyde] | 11.9
83 | OCC(O)C(O)CO (racemic) | 1.41
84 | O=C(CCc1ccc(O)cc1)c1c(O)cc(O)cc1OC1OC(CO)C(O)C(O)C1O (stereo not given) [phloridzin] | 29.6
85 | O=C(O)C=Cc1cccc(O)c1 [m-coumaric acid] | 26.2
86 | C=CCc1ccc(OC(C)=O)c(OC)c1 [eugenyl acetate] | 38.3
87 | O=C(O)C1OC(Oc2c(-c3ccc(O)cc3)oc3cc(O)cc(O)c3c2=O)C(O)C(O)C1O (stereo not given) [kaempferol 3-O-glucuronide] | 30.7
88 | c1ccc2[nH]ccc2c1 [indole] | 28.1
89 | COc1cc(C(=O)O)cc(OC)c1O [syringic acid] | 21.9
90 | CCCCCCC=CCCCCCCCC(=O)OC [methyl palmitoleate] | 54.9
